From US10292940B2, “Hyaluronic acid-based amphiphilic polymer, preparation method and application thereof” (BrightGene Bio-Medical Technology Co., Ltd., priority 2015, dated 2019) come the findings set out here.

Data set [1] deals with MCF-7/ADR tumor. The data set is described as follows: Ex vivo imaging of organs of tumor-bearing nude mice. The data set is classed as in vivo. Particulars: DOX about 15 mg/kg, 10 h. On the procedure: After 10 h, the heart, liver, spleen, lung, kidney and tumor block were collected, washed and fixed on a black plastic plate, which was then placed in a Maestro in vivo imaging system, and the intensity of DOX distribution in vivo was measured at an emission wavelength of 523 nm.

In data set [2] the test system is MCF-7/ADR tumor. The data set is described as follows: Bio-distribution in organs of tumor-bearing nude mice. Type of data set: in vivo. Particulars: DOX about 15 mg/kg, tail vein, after 10 h.
The test system of data set [3] is MCF-7/ADR tumor. The data set is described as follows: Anti-tumor effect in nude mice bearing drug-resistant breast-cancer tumor. The source says:
(§1) Tumor-bearing nude mice with a tumor size of 50 mm^3 were randomly divided into three groups (six in each group), and this day is set to day 0. […] Effects of drug-loaded micelles on tumor growth in nude mice were regularly measured with a caliper. Changes in body weight of nude mice were regularly weighed with a balance. The tumor size was obtained based on a formula V=0.5×L×W×H […] of the longest points of the tumor; W is the length of the shortest points of the tumor; H is the height of the tumor). After 24 days, one mouse was randomly taken from each group and was killed by neck and spine dislocation, and the heart, liver and tumor of each mouse were removed and fixed with 4% formaldehyde, sliced and stained with hematoxylin and eosin (H & E) and subjected to histological analysis. The remaining nude mice were still observed. Mice were considered to be died when the nude mice died during treatment, or the tumor volume exceeded 1000 mm^3. Relative tumor volume (%)=tumor volume/tumor volume on day 0×100%. Relative weight change (%)=body weight of nude mice/body weight of nude mice on day 0×100%.

Data set [4] relates to LP1 tumor (multiple myeloma). On the procedure: as §1, with “[…]” for “50 mm^3”, “V=0.5×L×W×H (L” for “V=0.5×L×W×H”, “[…]” for “nude mice/body”
The nature of data set [5]: Blood circulation in mice after tail vein injection. Particulars: DOX 15 mg/kg, up to 24 h.
Protocol: Six about 5-8 weeks old nude mice weighing 18-22 g were randomly divided into two groups, and each group was administered with DOX-loaded HA-Lys-LA crosslinked nanoparticles (MnHA=35 kDa, DS=10%, DLC=12%) or free DOX (DOX dosage being 15 mg/kg) via tail vein injection. 10 μL of blood was withdrawn from the tail vein each time at different time points after injection for 2 minutes, 15 minutes, 30 minutes, 1 h, 2 h, 4 h, 6 h, 8 h, 12 h, 24 h. After the blood was withdrawn, the blood sample was weighed and dissolved in 100 μL of 1% Triton solution, and then 1 mL of 0.75 mol/L hydrochloric acid isopropanol solution was added thereto. The mixture was allowed to stand overnight in dark at −20° C. After centrifugation, the supernatant was subjected to fluorescence test. % ID/g=(FL sample×(V Triton+V hydrochloric acid))/(M blood×FL standard×V standard×standard dilution factor)×100%
Six about 5-8 weeks old nude mice weighing 18-22 g were randomly divided into two groups, and each group was administered with DOX-loaded HA-Lys-LA crosslinked nanoparticles (MnHA=35 kDa, DS=40%, DLC=20%) or free DOX (DOX dosage being 15 mg/kg) via tail vein injection. […] After centrifugation, the supernatant was subjected to fluorescence test. % ID/g=(FL sample×(V Triton+V hydrochloric acid))/(M blood×FL standard×V standard×standard dilution factor)×100% […]

Like-named read-outs stand apart in the source and are kept apart here.

Turning to `COc1cccc2c1C(=O)c1c(O)c3c(c(O)c1C2=O)C[C@@](O)(C(=O)CO)C[C@@H]3O[C@H]1C[C@H](N)[C@H](O)[C@H](C)O1` [free DOX, doxorubicin], the “DOX distribution in tumor and organs (ex vivo fluorescence)” value in the data set on MCF-7/ADR tumor [1] is “almost did not concentrate at the tumor site”. The “enrichment of DOX at the tumor site” value in the data set on MCF-7/ADR tumor [2] is 0.63 % ID/g. Further, in the data set with MCF-7/ADR tumor [3] (DOX about 7.5 mg/kg), the “reduction of body weight of nude mice” value is on record as 28%, the side effects result is recorded as “large side effects” and the “time within which all mice died” value was at most 28 days. Besides, the tumor volume growth result with MCF-7/ADR tumor [3] (DOX about 7.5 mg/kg, tail vein) was “could not inhibit tumor growth”. In addition, in the data set with MCF-7/ADR tumor [3] (after 24 days), the “H&E histology of heart and liver” value was “liver corresponding to the free DOX group was greatly damaged, and myocardial cell atrophied”; the “H&E histology of tumor tissue” value is given as “grew vigorously”. Moreover, in data set [4] (DOX about 7.5 mg/kg), the “reduction of body weight of nude mice” value is given as “about 34%”, the “side effects / tolerance” value is reported as “large side effects” and the “time within which all mice died” value is reported as at most 15 days. In data set [4] (DOX about 7.5 mg/kg, tail vein), the “tumor volume growth / therapeutic effect” value was “could not inhibit tumor growth”. Further, the “side effects / tolerance” value in data set [4] (DOX about 7.5 mg/kg, listed as free drug) was “not tolerated”. Also, in data set [4] (after 24 days), the “H&E histology of heart and liver” value is “liver corresponding to the free DOX group was greatly damaged, and myocardial cell atrophied”; the “H&E histology of tumor tissue” value is reported as “grew vigorously”. The “blood circulation (DOX in mice blood)” value in data set [5] was “almost not detected in mice blood after 2 h”.
